The source of these data is ChEMBL document CHEMBL1134041, “Imide and lactam derivatives of N-benzylpyroglutamyl-L-phenylalanine as VCAM/VLA-4 antagonists” (Bioorg Med Chem Lett, 2001).

Structures are written as SMILES.

Assay [1] has as its target T1, Integrin alpha-4/beta-1 (Homo sapiens, UniProt P05556+P13612). Nature of the assay: Inhibition of human VCAM binding to VLA-4 of Ramos cells in ELISA. The assay is classed as cell-based. For orientation: In an ELISA, binding on a coated surface is turned into a signal by an enzyme label.
Assay [2] addresses T1, Integrin alpha-4/beta-1. Nature of the assay: Inhibition of human VCAM and Ramos cell VLA-4 interaction. The assay is classed as cell-based.

T1 sequence (P05556 whole entry): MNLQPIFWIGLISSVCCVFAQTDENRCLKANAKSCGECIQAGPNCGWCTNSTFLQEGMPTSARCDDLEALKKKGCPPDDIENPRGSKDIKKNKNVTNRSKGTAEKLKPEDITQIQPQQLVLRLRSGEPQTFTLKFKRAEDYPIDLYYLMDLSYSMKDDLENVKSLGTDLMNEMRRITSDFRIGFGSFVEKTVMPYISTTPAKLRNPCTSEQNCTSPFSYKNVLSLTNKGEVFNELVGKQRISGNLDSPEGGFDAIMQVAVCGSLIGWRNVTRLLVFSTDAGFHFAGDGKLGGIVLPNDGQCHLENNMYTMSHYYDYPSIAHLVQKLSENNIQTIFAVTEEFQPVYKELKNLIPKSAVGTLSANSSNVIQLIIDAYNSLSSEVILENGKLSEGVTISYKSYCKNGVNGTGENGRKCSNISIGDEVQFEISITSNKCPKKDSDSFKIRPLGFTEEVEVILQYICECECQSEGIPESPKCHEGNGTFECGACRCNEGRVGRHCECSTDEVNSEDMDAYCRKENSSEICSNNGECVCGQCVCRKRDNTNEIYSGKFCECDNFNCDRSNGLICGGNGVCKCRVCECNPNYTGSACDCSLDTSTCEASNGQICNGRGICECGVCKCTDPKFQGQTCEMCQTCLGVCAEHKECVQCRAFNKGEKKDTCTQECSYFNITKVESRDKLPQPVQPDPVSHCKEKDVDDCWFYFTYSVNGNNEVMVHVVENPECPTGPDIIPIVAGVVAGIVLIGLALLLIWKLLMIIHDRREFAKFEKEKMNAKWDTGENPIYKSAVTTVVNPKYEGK
T1 sequence (P13612 whole entry): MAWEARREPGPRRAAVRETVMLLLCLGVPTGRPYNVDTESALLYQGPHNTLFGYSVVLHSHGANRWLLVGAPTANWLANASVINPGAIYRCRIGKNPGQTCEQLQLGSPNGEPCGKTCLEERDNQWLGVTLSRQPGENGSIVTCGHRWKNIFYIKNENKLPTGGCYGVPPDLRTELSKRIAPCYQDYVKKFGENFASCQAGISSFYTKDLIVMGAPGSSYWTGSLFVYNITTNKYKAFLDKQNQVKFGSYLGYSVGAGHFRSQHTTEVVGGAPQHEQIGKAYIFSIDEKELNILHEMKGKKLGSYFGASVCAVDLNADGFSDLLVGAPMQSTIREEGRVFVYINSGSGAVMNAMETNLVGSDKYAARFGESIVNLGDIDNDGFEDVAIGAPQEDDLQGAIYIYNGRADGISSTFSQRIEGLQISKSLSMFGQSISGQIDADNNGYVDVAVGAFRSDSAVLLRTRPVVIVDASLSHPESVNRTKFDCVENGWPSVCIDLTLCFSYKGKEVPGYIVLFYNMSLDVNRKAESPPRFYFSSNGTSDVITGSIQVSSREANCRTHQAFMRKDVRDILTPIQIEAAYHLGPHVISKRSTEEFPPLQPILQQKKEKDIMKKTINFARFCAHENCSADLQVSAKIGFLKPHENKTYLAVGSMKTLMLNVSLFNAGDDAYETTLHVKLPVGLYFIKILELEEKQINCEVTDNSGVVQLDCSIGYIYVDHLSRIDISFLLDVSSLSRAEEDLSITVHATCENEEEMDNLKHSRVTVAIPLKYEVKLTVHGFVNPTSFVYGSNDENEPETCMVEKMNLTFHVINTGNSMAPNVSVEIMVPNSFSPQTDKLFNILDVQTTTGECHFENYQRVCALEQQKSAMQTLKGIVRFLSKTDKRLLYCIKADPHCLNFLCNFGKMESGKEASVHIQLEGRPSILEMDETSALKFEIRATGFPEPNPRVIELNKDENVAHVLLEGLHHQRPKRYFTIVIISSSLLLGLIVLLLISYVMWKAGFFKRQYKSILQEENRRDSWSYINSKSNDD

Usually IC50 stands for the concentration that gives 50% inhibition. A lower IC50 goes with higher potency. For `O=C(O)[C@H](Cc1ccc(N2C(=O)CC(c3ccccc3)C2=O)cc1)NC(=O)[C@@H]1CCC(=O)N1Cc1ccccc1` (stereo not given in full), the values for the IC50 at Integrin alpha-4/beta-1 [1] and against Integrin alpha-4/beta-1 [2] were 1.7 nM and 92 nM, respectively.
Regarding `O=C(O)[C@H](Cc1ccc(N2Cc3ccccc3C2=O)cc1)NC(=O)[C@@H]1CCC(=O)N1Cc1ccccc1`, the results for the IC50 on Integrin alpha-4/beta-1 [1] and against Integrin alpha-4/beta-1 [2] were 2.7 nM and 500 nM, respectively.
On to `O=C(O)[C@H](Cc1ccc(N2C(=O)CCC2=O)cc1)NC(=O)[C@@H]1CCC(=O)N1Cc1ccccc1`, for which the IC50 on Integrin alpha-4/beta-1 [1] came out at 3.2 nM; at Integrin alpha-4/beta-1 [2], 286 nM.
As for `O=C(O)[C@H](Cc1ccc(N2C(=O)c3ccccc3C2=O)cc1)NC(=O)[C@@H]1CCC(=O)N1Cc1ccccc1`, the IC50 at Integrin alpha-4/beta-1 [1] is 0.52 nM; at Integrin alpha-4/beta-1 [2] it was 20 nM.
As to `O=C(O)[C@H](Cc1ccc(N2C(=O)CC(Cc3ccccc3)C2=O)cc1)NC(=O)[C@@H]1CCC(=O)N1Cc1ccccc1` (stereo not given in full), the IC50 at Integrin alpha-4/beta-1 [1] worked out at 0.94 nM; at Integrin alpha-4/beta-1 [2], 123 nM.
On the same counts, the results for `O=C(O)[C@H](Cc1ccc(N2C(=O)CCC(c3ccccc3)C2=O)cc1)NC(=O)[C@@H]1CCC(=O)N1Cc1ccccc1` (stereo not given in full) are 0.99 nM and 184 nM.
On to `O=C(O)[C@H](Cc1ccc(N2C(=O)CC3(CCCC3)CC2=O)cc1)NC(=O)[C@@H]1CCC(=O)N1Cc1ccccc1`, for which the IC50 on Integrin alpha-4/beta-1 [1] came out at 0.54 nM; at Integrin alpha-4/beta-1 [2] it was 57 nM.
As to `O=C(Nc1ccc(C[C@H](NC(=O)[C@@H]2CCC(=O)N2Cc2ccccc2)C(=O)O)cc1)c1c(Cl)cccc1Cl`, the IC50 on Integrin alpha-4/beta-1 [1] turned out to be 0.37 nM; against Integrin alpha-4/beta-1 [2], 12 nM.
For `O=C(O)[C@H](Cc1ccc(N2CCCC2=O)cc1)NC(=O)[C@@H]1CCC(=O)N1Cc1ccccc1`, the IC50 on Integrin alpha-4/beta-1 [1] was 16 nM.
With `O=C(O)[C@H](Cc1ccc(N2C(=O)Cc3ccccc3C2=O)cc1)NC(=O)[C@@H]1CCC(=O)N1Cc1ccccc1`, the IC50 at Integrin alpha-4/beta-1 [1] came to 0.98 nM; against Integrin alpha-4/beta-1 [2], 107 nM.
Consider `CC(C)CC1CC(=O)N(c2ccc(C[C@H](NC(=O)[C@@H]3CCC(=O)N3Cc3ccccc3)C(=O)O)cc2)C1=O` (stereo not given in full), for which the results for the IC50 on Integrin alpha-4/beta-1 [1] and on Integrin alpha-4/beta-1 [2] were 0.76 nM and 41 nM, respectively.
On to `O=C(O)[C@H](Cc1ccc(N2C(=O)CC(c3ccc(O)cc3)C2=O)cc1)NC(=O)[C@@H]1CCC(=O)N1Cc1ccccc1` (stereo not given in full), for which the IC50 at Integrin alpha-4/beta-1 [1] is 2.6 nM; against Integrin alpha-4/beta-1 [2], 420 nM.
The corresponding values for `O=C(O)[C@H](Cc1ccc(N2C(=O)c3ccncc3C2=O)cc1)NC(=O)[C@@H]1CCC(=O)N1Cc1ccccc1` are 4.3 nM and 650 nM.
